Assay results published in ChEMBL document CHEMBL4837216, “Polymyxin B-inspired non-hemolytic tyrocidine A analogues with significantly enhanced activity against gram-negative bacteria: How cationicity impacts cell specificity and antibacterial mechanism” (Eur J Med Chem, 2021).
Converted amounts (≈) assume the structure as drawn. The source made the active and inactive calls. The rule behind the calls is not given here.

Legend:
Lipopolysaccharide (LPS) = experiment: Displacement of dansyl-polymyxinB from LPS (unknown origin) assessed as decrease in fluorescence intensity by fluorescence spectrophotometric analysis
Cell membrane [1] = experiment: Induction of cytoplasmic membrane permeabilization in Staphylococcus aureus at 0.06 to 8 times MIC measured for 10 mins by propidium iodide dye based fluorescence assay
Cell membrane [2] = experiment: Induction of cytoplasmic membrane permeabilization in Staphylococcus aureus assessed as increase in red fluorescence intensity at 2 times MIC measured after 60 mins by fluorescence microscopy
Escherichia coli [3] = experiment: Antibacterial activity against Escherichia coli ATCC 8739 assessed as inhibition of bacterial growth measured after 24 hrs by turbidity based analysis; assay type: functional
Pseudomonas aeruginosa = experiment: Antibacterial activity against Pseudomonas aeruginosa ATCC 27853 assessed as inhibition of bacterial growth measured after 24 hrs by turbidity based analysis; assay type: functional
Acinetobacter baumannii = experiment: Antibacterial activity against Acinetobacter baumannii ATCC 19606 assessed as inhibition of bacterial growth measured after 24 hrs by turbidity based analysis; assay type: functional; conditions: ATCC 19606 = CIP 70.34 = JCM 6841
Staphylococcus aureus [4] = experiment: Antibacterial activity against Staphylococcus aureus ATCC 6538 assessed as inhibition of bacterial growth measured after 24 hrs by turbidity based analysis; assay type: functional
Enterococcus faecalis = experiment: Antibacterial activity against Enterococcus faecalis ATCC 29212 assessed as inhibition of bacterial growth measured after 24 hrs by turbidity based analysis; assay type: functional
Staphylococcus aureus [5] = experiment: Antibacterial activity against methicillin resistant Staphylococcus aureus assessed as inhibition of bacterial growth measured after 24 hrs by turbidity based analysis; assay type: functional
[6] = Hemolytic activity in human RBC assessed as induction of cell lysis measured after 30 mins by microtiter plate method; assay type: cell-based, Erythrocyte; conditions: human red blood cells (erythrocytes)
L02 = experiment: Cytotoxicity against human L02 cells assessed as reduction in cell viability at >10 uM incubated for 24 hrs by CCK8 assay; assay type: cell-based; conditions: l02, 24 h
Cell membrane [7] = experiment: Induction of outer membrane permeabilization to NPN in Escherichia coli ATCC 8739 cells assessed as increase in fluorescence intensity by NPN-probe based fluorescence spectrophotometric analysis; assay type: subcellular
Cell membrane [8] = experiment: Induction of cytoplasmic membrane depolarization in Escherichia coli assessed as increase in fluorescence intensity a 1XMIC by DiSC3-5 dye based fluorescence method
Cell membrane [9] = experiment: Induction of cytoplasmic membrane depolarization in Staphylococcus aureus assessed as increase in fluorescence intensity a 1XMIC by DiSC3-5 dye based fluorescence method
Cell membrane [10] = experiment: Induction of cytoplasmic membrane permeabilization in Escherichia coli at 0.06 to 8 times MIC measured for 10 mins by propidium iodide dye based fluorescence assay
Cell membrane [11] = experiment: Induction of cytoplasmic membrane permeabilization in Escherichia coli at 0.06 to 8 times MIC measured for 60 mins by propidium iodide dye based fluorescence assay
Cell membrane [12] = experiment: Induction of cytoplasmic membrane permeabilization in Staphylococcus aureus at 0.06 to 8 times MIC measured for 60 mins by propidium iodide dye based fluorescence assay; assay type: subcellular
Cell membrane [13] = experiment: Induction of cytoplasmic membrane permeabilization in Escherichia coli assessed as increase in red fluorescence intensity at 2 times MIC measured after 60 mins by fluorescence microscopy; assay type: subcellular
Cell membrane [14] = experiment: Induction of cell membrane disruption in Escherichia coli assessed as increase in fluorescence intensity at 4 times MIC measured after 60 mins by PI staining based flow cytometric analysis (reference value: 0.1%); assay type: subcellular
Cell membrane [15] = experiment: Induction of cell membrane disruption in Escherichia coli assessed as increase in fluorescence intensity at 2 times MIC measured after 60 mins by PI staining based flow cytometric analysis (reference value: 0.1%); assay type: subcellular
[16] = Stability of the compound in human serum at 100 uM measured after 24 hrs by RP-HPLC analysis; assay type: ADME, cell-free
Escherichia coli [17] = experiment: Antibacterial activity against Escherichia coli ATCC 8739 infected in C57BL/6 mouse peritonitis sepsis model assessed as bacterial load in liver at 10 mg/kg, ip administered for 12 hrs (reference value: 5.7 +/-0.35 logCFU/gm); assay type: functional
Escherichia coli [18] = experiment: Antibacterial activity against Escherichia coli ATCC 8739 infected in C57BL/6 mouse peritonitis sepsis model assessed as bacterial load in kidney at 10 mg/kg, ip administered for 12 hrs (reference value: 5.15 +/-0.4 logCFU/gm); assay type: functional
Escherichia coli [19] = experiment: Antibacterial activity against Escherichia coli ATCC 8739 infected in C57BL/6 mouse peritonitis sepsis model assessed as bacterial load in spleen at 10 mg/kg, ip administered for 12 hrs (reference value: 6.01 +/-0.59 logCFU/gm); assay type: functional
Escherichia coli [20] = experiment: Antibacterial activity against Escherichia coli ATCC 8739 infected in C57BL/6 mouse peritonitis sepsis model assessed as bacterial load in lung at 10 mg/kg, ip administered for 12 hrs (reference value: 5.47 +/-0.73 logCFU/gm); assay type: functional
Staphylococcus aureus [21] = experiment: Antibacterial activity against Staphylococcus aureus ATCC 6538 assessed as inhibition of bacterial growth measured after 17 passages by turbidity based analysis; assay type: functional, organism-based
Escherichia coli [22] = experiment: Antibacterial activity against Escherichia coli ATCC 8739 infected in C57BL/6 mouse peritonitis sepsis model assessed as reduction in inflammatory cell infiltration in liver at 10 mg/kg, ip administered for 12 hrs by Hematoxylin-Eosin staining based microscopic analysis; assay type: functional, organism-based
Escherichia coli [23] = experiment: Antibacterial activity against Escherichia coli ATCC 8739 assessed as inhibition of bacterial growth measured after 17 passages by turbidity based analysis; assay type: functional, organism-based
Escherichia coli [24] = experiment: Antibacterial activity against Escherichia coli ATCC 8739 infected in C57BL/6 mouse peritonitis sepsis model assessed as reduction in inflammatory cell infiltration in kidney at 10 mg/kg, ip administered for 12 hrs by Hematoxylin-Eosin staining based microscopic analysis; assay type: functional, organism-based
Escherichia coli [25] = experiment: Antibacterial activity against Escherichia coli ATCC 8739 infected in C57BL/6 mouse peritonitis sepsis model assessed as reduction in inflammatory cell infiltration in spleen at 10 mg/kg, ip administered for 12 hrs by Hematoxylin-Eosin staining based microscopic analysis; assay type: functional, organism-based
Escherichia coli [26] = experiment: Antibacterial activity against Escherichia coli ATCC 8739 infected in C57BL/6 mouse peritonitis sepsis model assessed as reduction in inflammatory cell infiltration in lung at 10 mg/kg, ip administered for 12 hrs by Hematoxylin-Eosin staining based microscopic analysis; assay type: functional, organism-based
Lipid bilayer [27] = experiment: Binding affinity to bacterial inner membrane mimic DOPE/DOPG (3:1) large unilamellar vesicles assessed as calcein leakage measured after 30 mins fluorescence based assay
Cell membrane [28] = experiment: Induction of cell membrane disruption in Escherichia coli assessed as wrinkled cells at 20 uM incubated for 1 hr by scanning electron microscopy
Cell membrane [29] = experiment: Induction of cell membrane disruption in Staphylococcus aureus assessed as cell morphological damage at 20 uM incubated for 1 hr by scanning electron microscopy; assay type: subcellular
Escherichia coli [30] = experiment: Bactericidal activity against Escherichia coli assessed as decrease in cell survival at 1XMIC measured after 24 hrs by colony counting assay; assay type: functional, organism-based
Staphylococcus aureus [31] = experiment: Bactericidal activity against Staphylococcus aureus assessed as decrease in cell survival at 1XMIC measured after 24 hrs by colony counting assay; assay type: functional, organism-based
Cell membrane [32] = experiment: Induction of cell membrane disruption in Escherichia coli assessed as increase in fluorescence intensity at 1 times MIC measured after 60 mins by PI staining based flow cytometric analysis (reference value: 0.1%); assay type: subcellular
Lipid bilayer [33] = experiment: Binding affinity to eukaryotic cell membrane mimic DOPC/Cholesterol (3:1) large unilamellar vesicles assessed as calcein leakage measured after 30 mins fluorescence based assay
Escherichia coli [34] = experiment: Antibacterial activity against Escherichia coli ATCC 8739 infected in C57BL/6 mouse peritonitis sepsis model assessed as clear boundaries between hepatic cell cords in liver at 10 mg/kg, ip administered for 12 hrs by Hematoxylin-Eosin staining based microscopic analysis; assay type: functional, organism-based
Escherichia coli [35] = experiment: Antibacterial activity against Escherichia coli ATCC 8739 infected in C57BL/6 mouse peritonitis sepsis model assessed as glomerulus and renal tubules with normal shape in kidney at 10 mg/kg, ip administered for 12 hrs by Hematoxylin-Eosin staining based microscopic analysis; assay type: functional, organism-based
Escherichia coli [36] = experiment: Antibacterial activity against Escherichia coli ATCC 8739 infected in C57BL/6 mouse peritonitis sepsis model assessed as clear boundaries between white and red pulps in spleen at 10 mg/kg, ip administered for 12 hrs by Hematoxylin-Eosin staining based microscopic analysis; assay type: functional, organism-based
Escherichia coli [37] = experiment: Antibacterial activity against Escherichia coli ATCC 8739 infected in C57BL/6 mouse peritonitis sepsis model assessed as reduction in bleeding with normal shaped alveoli at 10 mg/kg, ip administered for 12 hrs by Hematoxylin-Eosin staining based microscopic analysis; assay type: functional, organism-based

For `CC(C)C[C@@H]1NC(=O)[C@H](CCCN)NC(=O)[C@H](CCCN)NC(=O)[C@H](CCCN)NC(=O)[C@H](CCCN)NC(=O)[C@H](CCCN)NC(=O)[C@@H](Cc2ccccc2)NC(=O)[C@H](Cc2ccccc2)NC(=O)[C@@H]2CCCN2C(=O)[C@@H](Cc2ccccc2)NC1=O`, the Activity (Lipopolysaccharide (LPS)) was “Active”, the Activity (Cell membrane [1]) was “inactive” and the Activity (Cell membrane [2]) was “Active”. For the same compound, the MIC (Escherichia coli [3]) was 5 µM (≈ 6.11 µg/mL), the MIC (Pseudomonas aeruginosa) was 10 µM (≈ 12.2 µg/mL) and the MIC (Acinetobacter baumannii) was 10 µM (≈ 12.2 µg/mL). For the same compound, the MIC (Staphylococcus aureus [4]) was 5 µM (≈ 6.11 µg/mL), the MIC (Enterococcus faecalis) was 5 µM (≈ 6.11 µg/mL) and the MIC (Staphylococcus aureus [5]) was 10 µM (≈ 12.2 µg/mL). The HC50 at 0.5 h [6] was greater than 400 µM, the Activity (L02) was “Toxic” and the Activity (Cell membrane [7]) was “Active”. The Activity (Cell membrane [8]) was “Active”, the Activity (Cell membrane [9]) was “Active” and the Activity (Cell membrane [10]) was “inactive”. For the same compound, the Activity (Cell membrane [11]) was “Active”, the Activity (Cell membrane [12]) was “Active” and the Activity (Cell membrane [13]) was “Active”. The Activity (Cell membrane [14]) was 91.8%, the Activity (Cell membrane [15]) was 78.3% and the Stabilty [16] was “Stable”. It also gave an Activity (Escherichia coli [17]) of 2.49 log10CFU/g, an Activity (Escherichia coli [18]) of 3.48 log10CFU/g and an Activity (Escherichia coli [19]) of 4.25 log10CFU/g. The Activity (Escherichia coli [20]) was 3.15 log10CFU/g, the Activity (Staphylococcus aureus [21]) was “Active” and the Activity (Escherichia coli [22]) was “Active”. The Activity (Escherichia coli [23]) was “Active”, the Activity (Escherichia coli [24]) was “Active” and the Activity (Escherichia coli [25]) was “Active”. For the same compound, the Activity (Escherichia coli [26]) was “Active”, the Activity (Lipid bilayer [27]) was “Active” and the Activity (Cell membrane [28]) was “Active”. The Activity (Cell membrane [29]) was “Active”, the Activity (Escherichia coli [30]) was “Active” and the Activity (Staphylococcus aureus [31]) was “Active”. The Activity (Cell membrane [32]) was 42.7%, the Activity (Lipid bilayer [33]) was “inactive” and the Activity (Escherichia coli [34]) was “Active”. The Activity (Escherichia coli [35]) was “Active”, the Activity (Escherichia coli [36]) was “Active” and the Activity (Escherichia coli [37]) was “Active”.
